In patent US11234970B2, “Parasitic pest control agents comprising pyridone compounds as active ingredients and methods for using the same” (MITSUI CHEMICALS AGRO, INC., priority 2017, dated 2022):

Tested on: heartworm microfillaria
Assay: Heartworm microfillaria mortality test (Test Example 1)
Format: in vitro
Conditions: final concentration 100 μg/ml in culture broth; after culturing for 7 days; microfillaria collected from infected dogs
Procedure: Compound Nos. 32, 53, 54 and 55 were each dissolved in dimethyl sulfoxide to 10 mg/ml. These dimethyl sulfoxide solutions were diluted 100-fold to a final concentration of 100 μg/ml with the culture broth containing heartworm microfillaria collected from dogs infected with heartworm. The mortality rate of heartworm microfillaria was investigated after culturing for 7 days.
As a result, the mortality rate was 100% in each of the treatment groups.

SMILES | mortality rate of heartworm microfillaria
CCn1c(-c2c(F)cccc2F)c(-c2cc(OC)cc(OC)c2Cl)ccc1=O [Compound 32] | 100%
CCn1c(-c2c(F)cccc2F)c(-c2cc(OC)ccc2Cl)cc(Cl)c1=O [Compound 54, 3-chloro-5-(2-chloro-5-methoxyphenyl)-6-(2,6-difluorophenyl)-1-ethylpyridine-2(1H)-one] | 100%
CCn1c(-c2c(F)cccc2F)c(-c2cc(OC)ccc2Cl)ccc1=O [Compound 53, 5-(2-chloro-5-methoxyphenyl)-6-(2,6-difluorophenyl)-1-ethylpyridine-2(1H)-one] | 100%
CCn1c(-c2c(F)cccc2F)c(-c2cc(OC)ccc2Cl)cc(Br)c1=O [Compound 55] | 100%
